Experimental data reported in patent US20260026495A1, “STABLE PLASMIN COMPOSITIONS FOR ORGAN PRESERVATION AND RECONDITIONING” (Grifols Worldwide Operations Limited, priority 2022, published 2026).

Legend:
plasmin = assay: Plasmin proteolytic activity in presence of TXA, S-2403 chromogenic substrate; format: biochemical, human; details: plasmin 1 mg/mL; TXA 0.001 mM to 100 mM; FIG. 3
Source text: S-2403 is a commercially available, plasmin specific chromogenic substrate.

[1] = Plasmin activity after storage, S-2403 chromogenic substrate; format: biochemical; details: plasmin 1 mg/mL stored at 0° C. over a 24-hour period; FIG. 4A
Method: To assess the compatibility of plasmin as an additive in Cold Storage Solutions, the activity of plasmin at a concentration of 1 mg/mL was assessed at multiple time points whilst stored at 0° C.
(white bars), 25° C. (black bars), or 37° C. (striped bars) for a 24 hour period. The commercial S-2403 plasmin specific chromogenic substrate was used to assess activity at each of the indicated times.
Significant plasmin activity is maintained when formulated with these excipients and diluted into organ preservation and reconditioning solutions. The commercial […] plasmin specific chromogenic substrate was used to assess activity at each of the indicated times.

Compound	proteolytic activity of plasmin (kinetics) (plasmin)	plasmin activity (kinetics) during storage [1]
NC[C@H]1CC[C@H](C(=O)O)CC1 [TXA, tranexamic acid]	unaltered kinetics	–
plasmin	–	unaltered kinetics
